Source: ChEMBL document CHEMBL1201862, “PubChem BioAssay data set” (2004)
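96-well plates; 48 h exposure; 5 concentrations. Endpoints by linear interpolation between flanking doses. Not reached: highest tested concentration assigned. GI50 marks 50% less growth.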 Activity calls are given as the source filed them. No stated cut-off is given here; in the data, active = GI50 up to about 1.1 µM and inactive = higher.

Assays:
Assay in all cases: NCI anticancer screen, dose series, 48 h
[1] = system: NCI/ADR-RES
[2] = system: T47D
[3] = system: SK-MEL-5
[4] = system: SF-268
[5] = system: PC-3
[6] = system: NCI-H23
[7] = system: A549
[8] = system: M14
[9] = system: SK-MEL-28
[10] = system: ACHN
[11] = system: UACC-62
[12] = system: MDA-MB-231
[13] = system: CCRF-CEM
[14] = system: CAKI-1
[15] = system: DU-145
[16] = system: KM12
[17] = system: SNB-19
[18] = system: HCC 2998
[19] = system: SN12C
[20] = system: Hs-578T
[21] = system: BT-549
[22] = system: 786-0
[23] = system: OVCAR-4
[24] = system: OVCAR-8
[25] = system: HCT-15
[26] = system: MOLT-4
[27] = system: EKVX
[28] = system: IGROV-1
[29] = system: TK-10
[30] = system: HT-29
[31] = system: MCF7
[32] = system: SW-620
[33] = system: SF-295
[34] = system: A498
[35] = system: SK-OV-3
[36] = system: HL-60
[37] = system: RPMI-8226
[38] = system: LOX IMVI
[39] = system: SF-539
[40] = system: NCI-H522
[41] = system: OVCAR-5
[42] = system: RXF 393
[43] = system: HOP-62
[44] = system: Malme-3M
[45] = system: HCT-116
[46] = system: OVCAR-3
[47] = system: MDA-MB-435
[48] = system: COLO 205
[49] = system: NCI-H460
[50] = system: SK-MEL-2
[51] = system: UACC-257
[52] = system: MDA-N
[53] = system: U-251
[54] = system: HOP-92

Structure (SMILES): COC(=O)[C@@H](OC(C)=O)[C@@H](OC(C)=O)c1nnc2ccc(Cl)nn12
- GI50 [1]: > 100 µM (inactive)
- GI50 [2]: > 100 µM (inactive)
- GI50 [3]: > 100 µM (inactive)
- GI50 [4]: > 100 µM (inactive)
- GI50 [5]: > 100 µM (inactive)
- GI50 [6]: > 100 µM (inactive)
- GI50 [7]: > 100 µM (inactive)
- GI50 [8]: > 100 µM (inactive)
- GI50 [9]: 97.7 µM (inactive)
- GI50 [10]: > 100 µM (inactive)
- GI50 [11]: > 100 µM (inactive)
- GI50 [12]: > 100 µM (inactive)
- GI50 [13]: > 100 µM (inactive)
- GI50 [14]: 92 µM (inactive)
- GI50 [15]: > 100 µM (inactive)
- GI50 [16]: > 100 µM (inactive)
- GI50 [17]: > 100 µM (inactive)
- GI50 [18]: 36.2 µM (inactive)
- GI50 [19]: > 100 µM (inactive)
- GI50 [20]: > 100 µM (inactive)
- GI50 [21]: > 100 µM (inactive)
- GI50 [22]: > 100 µM (inactive)
- GI50 [23]: > 100 µM (inactive)
- GI50 [24]: > 100 µM (inactive)
- GI50 [25]: > 100 µM
- GI50 [26]: > 100 µM (inactive)
- GI50 [27]: > 100 µM (inactive)
- GI50 [28]: 85.3 µM (inactive)
- GI50 [29]: > 100 µM (inactive)
- GI50 [30]: > 100 µM (inactive)
- GI50 [31]: > 100 µM (inactive)
- GI50 [32]: > 100 µM (inactive)
- GI50 [33]: > 100 µM (inactive)
- GI50 [34]: > 100 µM (inactive)
- GI50 [35]: > 100 µM (inactive)
- GI50 [36]: > 100 µM (inactive)
- GI50 [37]: 62.2 µM (inactive)
- GI50 [38]: > 100 µM (inactive)
- GI50 [39]: > 100 µM (inactive)
- GI50 [40]: 22.2 µM (inactive)
- GI50 [41]: > 100 µM (inactive)
- GI50 [42]: > 100 µM (inactive)
- GI50 [43]: > 100 µM (inactive)
- GI50 [44]: > 100 µM (inactive)
- GI50 [45]: > 100 µM (inactive)
- GI50 [46]: > 100 µM (inactive)
- GI50 [47]: > 100 µM (inactive)
- GI50 [48]: > 100 µM (inactive)
- GI50 [49]: > 100 µM (inactive)
- GI50 [50]: > 100 µM (inactive)
- GI50 [51]: 87.9 µM (inactive)
- GI50 [52]: > 100 µM (inactive)
- GI50 [53]: > 100 µM (inactive)

Structure (SMILES): C=CC(C)(C)/C=C/c1ccc(O)cc1
- GI50 [1]: 47.9 µM (inactive)
- GI50 [2]: 20 µM (inactive)
- GI50 [3]: 38.5 µM (inactive)
- GI50 [4]: 33.9 µM (inactive)
- GI50 [5]: 28 µM (inactive)
- GI50 [6]: 31.8 µM (inactive)
- GI50 [7]: 29.1 µM (inactive)
- GI50 [8]: 43.1 µM (inactive)
- GI50 [9]: 35.9 µM (inactive)
- GI50 [10]: 28.9 µM (inactive)
- GI50 [11]: 42.7 µM (inactive)
- GI50 [12]: 36.4 µM (inactive)
- GI50 [13]: 39.3 µM (inactive)
- GI50 [14]: 44.7 µM (inactive)
- GI50 [15]: 40.4 µM (inactive)
- GI50 [16]: 39.3 µM (inactive)
- GI50 [17]: 44.3 µM (inactive)
- GI50 [18]: 27.9 µM (inactive)
- GI50 [19]: 34.5 µM (inactive)
- GI50 [20]: 39.2 µM (inactive)
- GI50 [21]: 36.5 µM (inactive)
- GI50 [22]: 27.7 µM (inactive)
- GI50 [23]: 55.5 µM (inactive)
- GI50 [24]: 39.7 µM (inactive)
- GI50 [25]: 39.1 µM
- GI50 [26]: 38.5 µM (inactive)
- GI50 [54]: 47 µM (inactive)
- GI50 [27]: 45.3 µM (inactive)
- GI50 [28]: 44 µM (inactive)
- GI50 [29]: 36.1 µM (inactive)
- GI50 [30]: 38.2 µM (inactive)
- GI50 [31]: 35.7 µM (inactive)
- GI50 [32]: 33.3 µM (inactive)
- GI50 [33]: 27 µM (inactive)
- GI50 [34]: 28.3 µM (inactive)
- GI50 [35]: 49.7 µM (inactive)
- GI50 [36]: 37.6 µM (inactive)
- GI50 [37]: 27.5 µM (inactive)
- GI50 [38]: 21.9 µM (inactive)
- GI50 [39]: 30.1 µM (inactive)
- GI50 [40]: 34.4 µM (inactive)
- GI50 [41]: 46.6 µM (inactive)
- GI50 [42]: 24.8 µM (inactive)
- GI50 [43]: 58.2 µM (inactive)
- GI50 [44]: 36.8 µM (inactive)
- GI50 [45]: 31.3 µM (inactive)
- GI50 [46]: 28.8 µM (inactive)
- GI50 [47]: 37.9 µM (inactive)
- GI50 [48]: 35.5 µM (inactive)
- GI50 [49]: 19.8 µM (inactive)
- GI50 [50]: 23.4 µM (inactive)
- GI50 [51]: 24 µM (inactive)
- GI50 [52]: 35 µM (inactive)
- GI50 [53]: 30 µM (inactive)
